US6815556B2, “Compounds having fungicidal activity and processes to make and use same” (Dow AgroSciences LLC, priority 2000, dated 2004)
Like-named read-outs stand apart in the source and are kept apart here.

Assays:
Phytophthora infestans = experiment: whole plant or invertebrate; type: in vivo; settings: 24 h, read-out: PHYTIN percent control
Plasmopara viticola = experiment: whole plant or invertebrate; type: in vivo; settings: 24 h, read-out: PLASVI percent control
Septoria tritici = experiment: Leaf Blotch of Wheat, 1-day protectant whole plant test; type: in vivo; settings: Zymoseptoria tritici, 24 h, read-out: SEPTTR percent control
[1] = 100 ppm spray, wheat plants (variety Monon), one-day protectant test, vs untreated inoculated plants

Structure (SMILES) | pest or weed control at 100 ppm (Phytophthora infestans) [%] | pest or weed control at 100 ppm (Plasmopara viticola) [%] | pest or weed control at 100 ppm (Septoria tritici; [1]) [%] | melting point [°C] | pest or weed control at 100 ppm (Septoria tritici) [%]
CCC(c1ccc(Cl)cc1)S(=O)(=O)C[C@@H](NC(=O)OC(C)C)C(C)C (some centres unmarked) [Compound 23] | 50 to 89 | 50 to 89 | 50 to 89 |  | 
CC(c1ccc(C#N)cc1)S(=O)(=O)C[C@H](CC1CCCCC1)NC(=O)OC(C)(C)C (some centres unmarked) [Compound 41] | 50 to 89 | 90 to 100 |  | 58 to 65 | 
COC(=O)c1ccc(C(C)S(=O)(=O)C[C@@H](NC(=O)OC(C)C)C(C)C)cc1 (some centres unmarked) [Compound 14] | 90 to 100 | 90 to 100 |  | 140 to 145 | 
CC(C)OC(=O)N[C@H](CS(=O)(=O)C(C)c1cc2ccc(F)cc2o1)C(C)C (some centres unmarked) [Compound 25] | 90 to 100 | 90 to 100 |  |  | 
Cc1cccc(OC(=O)N[C@H](CS(=O)(=O)C(C)c2ccc(C#N)cc2)C(C)C)c1 (some centres unmarked) [Compound 19] | 90 to 100 | 90 to 100 |  |  | 
CC(C)[C@@H](CS(=O)(=O)C(C)c1ccc(Br)cc1)NC(=O)OC(C)(C)C (some centres unmarked) [Compound 20] | 90 to 100 | 50 to 89 | 20 to 49 |  | 
CC(C)OC(=O)N[C@H](CS(=O)(=O)C(C)c1ccc(C=O)cc1)C(C)C (some centres unmarked) [Compound 15] | 90 to 100 | 90 to 100 |  | 50 to 60 | 
CC(C)[C@@H](CS(=O)(=O)C(C)c1ccc(C#N)cc1)NC(=O)Nc1ccc(C(F)(F)F)cc1 (some centres unmarked) [Compound 37] | 90 to 100 | 90 to 100 |  |  | 
CC(C)[C@@H](CS(=O)(=O)C(C)c1ccc(Br)cc1)NC(=O)Oc1ccccc1 (some centres unmarked) [Compound 17] | 90 to 100 | 90 to 100 |  | 55 to 65 | 20 to 49
CC(C)OC(=O)N[C@H](CS(=O)(=O)C(C)c1ccc2ccccc2c1)C(C)C (some centres unmarked) [Compound 16] | 90 to 100 | 50 to 89 |  |  | 
Cc1ccc(OC(=O)N[C@H](CS(=O)(=O)C(C)c2ccc(C#N)cc2)C(C)C)cc1C (some centres unmarked) [Compound 33] | 90 to 100 | 90 to 100 |  |  | 
Cc1ccc(OC(=O)N[C@H](CS(=O)(=O)C(C)c2ccc(C#N)cc2)C(C)C)cc1 (some centres unmarked) [Compound 29] | 90 to 100 | 90 to 100 |  | 65 to 74 | 50 to 89
COC(C)[C@@H](CS(=O)(=O)C(C)c1ccc(C#N)cc1)NC(=O)Oc1ccc(C)cc1 (some centres unmarked) [Compound 40] | 90 to 100 | 90 to 100 |  |  | 
CCC(C)[C@@H](CS(=O)(=O)C(C)c1ccc(Br)cc1)NC(=O)OC(C)C (some centres unmarked) [Compound 39] | 90 to 100 | 90 to 100 |  |  | 
CC(C)OC(=O)N[C@H](CS(=O)(=O)C(C)c1nc2ccc(Br)cc2s1)C(C)C (some centres unmarked) [Compound 10] | 90 to 100 | 90 to 100 |  |  | 
CC[C@@H](CS(=O)(=O)C(C)c1ccc(C#N)cc1)NC(=O)Oc1ccc(F)cc1 (some centres unmarked) [Compound 42] | 90 to 100 | 90 to 100 |  | 50 to 62 | 
CCSC(=O)N[C@H](CS(=O)(=O)C(C)c1ccc(C#N)cc1)C(C)C (some centres unmarked) [Compound 36] | 50 to 89 | 50 to 89 |  |  | 
CC(C)OC(=O)N[C@H](CS(=O)(=O)C(C)c1ccc(-c2ccccc2)cc1)C(C)C (some centres unmarked) [Compound 6] | 90 to 100 | 90 to 100 |  |  | 
CCOc1ccc(OC(=O)N[C@H](CS(=O)(=O)C(C)c2ccc(Br)cc2)C(C)C)cn1 (some centres unmarked) [Compound 32] | 90 to 100 | 90 to 100 |  |  | 
CC(C)OC(=O)N[C@@H](C(C)C)C(C)S(=O)(=O)C(C)c1ccc(Br)cc1 (some centres unmarked) [Compound 44] | 90 to 100 | 50 to 89 |  |  | 
CC(C)OC(=O)N[C@H](CS(=O)(=O)C(C)c1ccc(OC(F)(F)F)cc1)C(C)C (some centres unmarked) [Compound 4] | 90 to 100 | 90 to 100 | < 20 | 50 to 60 | 
CC(C)OC(=O)N[C@H](CS(=O)(=O)C(C)c1ccc(Br)nc1)C(C)C (some centres unmarked) [Compound 8] | 50 to 89 | 50 to 89 | < 20 |  | 

Structure (SMILES) | pest or weed control at 100 ppm (Phytophthora infestans) [%] | pest or weed control at 100 ppm (Plasmopara viticola) [%] | pest or weed control at 100 ppm (Septoria tritici; [1]) [%] | melting point [°C] | pest or weed control at 100 ppm (Septoria tritici) [%]
CC(C)OC(=O)N[C@H](CS(=O)(=O)C(Cl)c1ccc(Cl)cc1)C(C)C (some centres unmarked) [Compound 22, isopropyl 1-({[chloro(4-chlorophenyl)methyl]sulfonyl}methyl)-2-methylpropylcarbamate] | 90 to 100 | 90 to 100 | < 20 | 140 to 143 | 
CC(C)OC(=O)N[C@H](CS(=O)(=O)C(C)c1cccc(F)c1)C(C)C (some centres unmarked) [Compound 3] | 90 to 100 | 50 to 89 |  |  | 
CC(C)OC(=O)N[C@H](CS(=O)(=O)C(C)c1ccc(Br)c([N+](=O)[O-])c1)C(C)C (some centres unmarked) [Compound 24] | 90 to 100 | 90 to 100 |  |  | 
C=C(C)OC(=O)N[C@H](CS(=O)(=O)C(C)c1ccc(C#N)cc1)C(C)C (some centres unmarked) [Compound 28] | 90 to 100 | 90 to 100 |  |  | 
COc1cccc(OC(=O)N[C@H](CS(=O)(=O)C(C)c2ccc(C#N)cc2)C(C)C)c1 (some centres unmarked) [Compound 43] | 50 to 89 | 90 to 100 |  | 50 to 53 | 
CC(C)OC(=O)N[C@H](CS(=O)(=O)C(C)c1ccc(Br)cc1)C(C)C (some centres unmarked) [Compound 1] | 90 to 100 | 90 to 100 | < 20 | 60 to 70 | 
CC(C)OC(=O)N[C@H](CS(=O)(=O)C(C)c1ccc(Cl)c(Cl)c1)C(C)C (some centres unmarked) [Compound 5] | 90 to 100 | 50 to 89 | < 20 | 75 to 85 | 
CC(C)[C@@H](CS(=O)(=O)C(C)c1ccc(C#N)cc1)NC(=O)OCC(Cl)(Cl)Cl (some centres unmarked) [Compound 27] | 90 to 100 | 90 to 100 | 50 to 89 |  | 
C#Cc1ccc(C(C)S(=O)(=O)C[C@@H](NC(=O)OC(C)C)C(C)C)cc1 (some centres unmarked) [Compound 11] | 90 to 100 | 50 to 89 | 50 to 89 | 125 to 135 | 
CC(C)[C@@H](CS(=O)(=O)C(C)c1ccc(C#N)cc1)NC(=O)Oc1ccc(F)cc1 (some centres unmarked) [Compound 18] | 90 to 100 | 90 to 100 |  |  | 50 to 89
CC(C)[C@@H](CS(=O)(=O)C(C)c1ccc(C#N)cc1)NC(=O)Oc1ccccc1Br (some centres unmarked) [Compound 34] | 90 to 100 | 90 to 100 |  |  | 
CC(C)OC(=S)N[C@H](CS(=O)(=O)C(C)c1ccc(C#N)cc1)C(C)C (some centres unmarked) [Compound 35] | 90 to 100 | 90 to 100 |  |  | 
C=CCC(c1ccc(C#N)cc1)S(=O)(=O)C[C@@H](NC(=O)Oc1ccc(C)cc1)C(C)C (some centres unmarked) [Compound 26] | 90 to 100 | 90 to 100 |  |  | 
CC(C)OC(=O)N[C@H](CS(=O)(=O)C(C)c1ccc(C#N)cc1)C(C)C (some centres unmarked) [Compound 2] | 90 to 100 | 90 to 100 | < 20 | 110 to 120 | 
CC(C)OC(=O)N[C@H](CS(=O)(=O)C(C)c1ccc([N+](=O)[O-])cc1)C(C)C (some centres unmarked) [Compound 13] | 90 to 100 | 90 to 100 | < 20 |  | 
CON=Cc1ccc(C(C)S(=O)(=O)C[C@@H](NC(=O)OC(C)C)C(C)C)cc1 (some centres unmarked) [Compound 12] | 90 to 100 | 90 to 100 |  |  | 
CC[C@@H](CS(=O)(=O)C(C)c1ccc(C#N)cc1)NC(=O)Oc1ccc(C)cc1 (some centres unmarked) [Compound 38] | 90 to 100 | 90 to 100 |  | 50 to 60 | 
CC(C)[C@@H](CS(=O)(=O)C(C)c1ccc(Br)cc1)NC(=O)Oc1ccc2ccccc2c1 (some centres unmarked) [Compound 31] | 90 to 100 | 90 to 100 |  | 129 to 135 | 
CC(C)OC(=O)N[C@H](CS(=O)(=O)C(C)c1ccc(C#N)s1)C(C)C (some centres unmarked) [Compound 9] | 90 to 100 | 90 to 100 |  |  | 
C#CCCOC(=O)N[C@H](CS(=O)(=O)C(C)c1ccc(Br)cc1)C(C)C (some centres unmarked) [Compound 21] | 90 to 100 | 50 to 89 | 50 to 89 |  | 
CC(C)[C@@H](CS(=O)(=O)C(C)c1ccc(C#N)cc1)NC(=O)Oc1ccc(Br)cc1 (some centres unmarked) [Compound 30] | 90 to 100 | 90 to 100 |  |  | 
